Literature values as cited in patent US20060182688A1, “Metronidazole-based tinted topical pharmaceutical compositions” (GALDERMA S.A., priority 2003, published 2006).

Tested on: rosacea

Compound: Cc1ncc([N+](=O)[O-])n1CCO [metronidazole, 1-(2-hydroxyethyl)-2-methyl-5-nitroimidazole]
- effect on erythema (200 mg twice a day): ineffective
- effect on the papules and pustules of rosacea (200 mg twice a day): had therapeutic effects
- action on the clinical signs such as erythema, telangiectasia or redness (rosacea): no action
- effect against the papules and pustules (rosacea): effective
- effect on the inflammatory lesions (rosacea): effectively improves
